What was measured:
[1] = target: T1, insulin disulfides (heterodimeric insulin) (Homo sapiens, UniProt P01308); experiment: single-turnover insulin protein disulfide reduction assay (RP-HPLC of insulin heterodimer peak); assay type: biochemical; conditions: relative GSH:TRX concentrations comparable to the airway, pH 8, FIG. 1
T1 construct: fully disulfide-bonded heterodimeric insulin
Protocol: Left side of FIG. 1—polyacrylamide gel electrophoresis of native human thioredoxin-1 (TRX). Lane 1: Molecular weight standards; Lane 2: Oxidized TRX; Lane 3: Oxidized TRX following reaction with dithiothreitol (DTT); Lane 4: Oxidized TRX following reaction with reduced glutathione (GSH); Lane 5: Oxidized TRX following reaction with GSH followed by DTT. Right side of FIG. 1—TRX was oxidized by exposure to ambient air for one week then incubated with either DTT or GSH at pH 8 for 1 hour followed by purification over a size exclusion column to remove unreacted free DTT or GSH after which the TRX was collected and used in a single-turnover insulin protein-disulfide reduction assay. […] After 30 min, 60 min and 120 minutes aliquots were taken and diluted with 0.1% TFA and 17 uM (final) iodoacetic acid and analyzed over RP-HPLC. Absorbance was monitored at 214 nm and the peak area of the insulin heterodimer fraction was determined at each time point to quantify TRX protein disulfide-reducing activity.
C35STRX was oxidized and Lys residues were conjugated to an azido-PEG linker. The conjugated material was then reduced and tested for molecular weight using SDS-PAGE (FIG. 5D) and MALDI-TOF (FIG. 5E) and activity assessed using a single-turnover insulin protein disulfide reduction assay. […]

[2] = inhalation vs. i.v.; cited from earlier work

T1 sequence (P01308 25-54 limits assumed): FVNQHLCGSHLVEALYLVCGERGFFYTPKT
T1 sequence (P01308 90-110 limits assumed): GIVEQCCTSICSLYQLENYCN

N[C@@H](CCC(=O)N[C@@H](CS)C(=O)NCC(=O)O)C(=O)O [GSH, reduced glutathione, reference compound]
restoration of insulin disulfide bond reduction activity to oxidized TRX [1]: capable of restoring insulin disulfide bond reduction activity to oxidized TRX

CN[C@H](CC(C)C)C(=O)N[C@H]1C(=O)N[C@@H](CC(N)=O)C(=O)N[C@H]2C(=O)N[C@H]3C(=O)N[C@H](C(=O)N[C@H](C(=O)O)c4cc(O)cc(O)c4-c4cc3ccc4O)[C@H](O)c3ccc(c(Cl)c3)Oc3cc2cc(c3O[C@@H]2O[C@H](CO)[C@@H](O)[C@H](O)[C@H]2O[C@H]2C[C@](C)(N)[C@H](O)[C@H](C)O2)Oc2ccc(cc2Cl)[C@H]1O [vancomycin]
systemic exposure level by inhalation delivery relative to equivalent i.v. [2]: ~50%

From patent US20210213134A1, “THIOL-BASED MULTIVALENT DRUG DELIVERY COMPOSITIONS” (ORPRO THERAPEUTICS, INC., priority 2018, published 2021)
